Source: patent US20090022729A1, “METHODS AND COMPOSITIONS FOR TREATING CARDIAC DYSFUNCTIONS” (priority 2007, published 2009)

How the values were obtained:
PAR-1 [1] = target: T1, PAR-1 (Homo sapiens, UniProt P25116); conditions: cited from earlier work
T1 sequence (P25116 22-425): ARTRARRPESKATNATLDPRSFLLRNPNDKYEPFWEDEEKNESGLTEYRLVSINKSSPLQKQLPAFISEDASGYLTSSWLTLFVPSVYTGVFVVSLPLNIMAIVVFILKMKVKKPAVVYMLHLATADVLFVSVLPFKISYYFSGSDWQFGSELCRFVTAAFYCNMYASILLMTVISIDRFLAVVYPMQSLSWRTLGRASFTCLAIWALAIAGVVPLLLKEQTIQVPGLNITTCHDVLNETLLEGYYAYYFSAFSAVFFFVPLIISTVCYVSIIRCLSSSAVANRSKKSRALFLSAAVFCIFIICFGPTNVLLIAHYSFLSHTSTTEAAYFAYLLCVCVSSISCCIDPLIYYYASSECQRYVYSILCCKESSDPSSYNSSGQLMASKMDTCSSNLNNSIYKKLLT

thrombin [2] = target: thrombin (Homo sapiens, UniProt P00734); conditions: cited from earlier work
PAR2 = target: T2, PAR2 (Homo sapiens, UniProt P55085); conditions: cited from earlier work
T2 sequence (P55085 26-397): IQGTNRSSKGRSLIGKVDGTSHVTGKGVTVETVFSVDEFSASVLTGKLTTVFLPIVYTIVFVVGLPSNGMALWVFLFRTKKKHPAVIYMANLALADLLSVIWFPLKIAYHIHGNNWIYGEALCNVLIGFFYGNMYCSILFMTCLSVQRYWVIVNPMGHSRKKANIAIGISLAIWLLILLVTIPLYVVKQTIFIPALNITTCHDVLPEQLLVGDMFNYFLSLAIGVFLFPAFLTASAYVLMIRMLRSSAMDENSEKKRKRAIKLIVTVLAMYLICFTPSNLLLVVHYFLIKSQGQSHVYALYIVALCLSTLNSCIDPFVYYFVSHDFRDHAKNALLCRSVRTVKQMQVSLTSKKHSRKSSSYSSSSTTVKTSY

PAR-1 [3] = target: T1, PAR-1; conditions: cited from earlier work; remark: listed apart in the source
PAR4 = target: T3, PAR4 (Homo sapiens, UniProt Q96RI0); conditions: cited from earlier work
T3 sequence (Q96RI0 18-385): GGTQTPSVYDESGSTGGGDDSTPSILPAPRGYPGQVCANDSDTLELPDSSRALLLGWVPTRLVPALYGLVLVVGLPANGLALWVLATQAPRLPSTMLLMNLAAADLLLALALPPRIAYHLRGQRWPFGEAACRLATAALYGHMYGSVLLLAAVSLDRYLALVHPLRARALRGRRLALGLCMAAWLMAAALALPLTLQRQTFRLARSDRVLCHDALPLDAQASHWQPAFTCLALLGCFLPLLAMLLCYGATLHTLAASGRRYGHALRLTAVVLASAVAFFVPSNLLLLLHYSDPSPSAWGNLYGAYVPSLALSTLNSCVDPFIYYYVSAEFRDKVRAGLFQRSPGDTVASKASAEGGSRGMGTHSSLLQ

PAR3 = target: T4, PAR3 (Homo sapiens, UniProt O00254); conditions: cited from earlier work
T4 sequence (O00254 22-374): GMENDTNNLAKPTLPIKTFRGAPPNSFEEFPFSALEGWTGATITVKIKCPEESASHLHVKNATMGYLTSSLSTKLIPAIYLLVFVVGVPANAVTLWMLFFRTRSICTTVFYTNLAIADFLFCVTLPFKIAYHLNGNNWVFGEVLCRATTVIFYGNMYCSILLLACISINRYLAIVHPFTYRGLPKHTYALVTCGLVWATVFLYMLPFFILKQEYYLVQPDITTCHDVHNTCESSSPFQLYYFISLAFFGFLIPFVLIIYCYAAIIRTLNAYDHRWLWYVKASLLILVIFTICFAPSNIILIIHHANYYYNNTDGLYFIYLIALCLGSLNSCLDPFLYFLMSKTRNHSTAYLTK

thrombin [4] = target: T5, thrombin (Mus musculus, UniProt P19221); assay: short-term cardiac I/R injury model (30 minutes of ischemia and 2 hours of reperfusion); type: in vivo; conditions: WT mice, hirudin vs saline, FIG. 1A
T5 construct: from tissue; host or cells: wild-type mice in vivo (blood / injured myocardium)
Protocol: Cardiac I/R injury models. For the short-term I/R model (30 minutes of ischemia and 2 hours of reperfusion), the surgical protocol and infarct size determination were performed as described in Palazzo et al. (Am. J. Physiol. 275:H2300-H2307 (1998)) with some modifications. Briefly, intraperitoneal injection of pentobarbital (100 mg/kg) (Abbott Laboratories, Abbott Park, Ill.) was used for anesthesia. Mice were orally intubated to provide artificial ventilation (0.3 mL tidal volume, 120 breaths/minute). The left anterior descending coronary artery was occluded with a 7-0 silk suture (U.S. Surgical Corp., Norwalk, Conn.) passed through PE tubing (U.S. Surgical Corp.) to make a Rumel snare. After 30 minutes of ischemia, the snare was released and the heart was reperfused for 2 hours. Finally, the artery was reoccluded and 4% Evans Blue dye was injected into the aortic root to delineate the area-at-risk (AAR) from not at-risk myocardium (blue). […] The LV, AAR and infarct areas were traced and calculated by computer planimetry (Image J, version 1.21). Infarct volumes were calculated as: [(A1×W1)+(A2×W2)+(A3×W3)+(A4×W4)+(A5×W5)], where A is the area of infarct for the slice denoted by the subscript and W is the weight of the respective section.

Row | Compound | PAR1 antagonist activity and selectivity (PAR-1 [1]) | inhibition of thrombin activity (thrombin [2]) | effect on PAR2 (PAR2) | calcium mobilization (PAR-1 [3]) | effect on PAR4 (PAR4) | effect on PAR3 (PAR3) | infarct size (thrombin [4]) | size of the area at-risk (thrombin [4])
1 | NCC[C@H](NC(=O)[C@H](Cc1ccc(F)c(F)c1)NC(=O)Nc1ccc2c(CN3CCCC3)cn(Cc3c(Cl)cccc3Cl)c2c1)C(=O)NCc1ccccc1 [RWJ-56110, (αS)—N-[(1S)-3-amino-1-[[(phenylmethyl)amino]carbonyl]propyl]-α-[[[[[1-(2,6-dichlorophenyl)methyl]-3-(1-pyrrolidinylmethyl)-1H-indol-6-yl]amino]carbonyl]amino]-3,4-difluorobenzenepropanamide] | potent, selective PAR-1 antagonist | does not affect PAR2, PAR3, or PAR4 or inhibit thrombin activity | does not affect | interferes with calcium mobilization | does not affect | does not affect | – | –
2 | hirudin | – | – | – | – | – | – | decreased | Neither hirudin treatment nor PAR1 deficiency affected
